Results on 13 compounds are retold here after publication PMC4369170 (ACS chemical biology, 2015).

Where two headings read alike, the source gives them in different places.

The subject of experiment [1] is fui1Δ::PfENT1-HA-CO strain. Description: 5-FUrd growth inhibition of PfENT1-HA-CO expressing fui1Δ yeast. The class given is cell-based. The note with it: Saccharomyces cerevisiae, read-out: 5-FUrd IC50, yeast cell growth, growth assessed by OD600.
Experiment [2] deals with T1, PfENT1 (Plasmodium falciparum, UniProt Q8IDM6). In words: cell-based. As to conditions: 125 µM 5-FUrd.
T1 sequence (Q8IDM6 whole entry): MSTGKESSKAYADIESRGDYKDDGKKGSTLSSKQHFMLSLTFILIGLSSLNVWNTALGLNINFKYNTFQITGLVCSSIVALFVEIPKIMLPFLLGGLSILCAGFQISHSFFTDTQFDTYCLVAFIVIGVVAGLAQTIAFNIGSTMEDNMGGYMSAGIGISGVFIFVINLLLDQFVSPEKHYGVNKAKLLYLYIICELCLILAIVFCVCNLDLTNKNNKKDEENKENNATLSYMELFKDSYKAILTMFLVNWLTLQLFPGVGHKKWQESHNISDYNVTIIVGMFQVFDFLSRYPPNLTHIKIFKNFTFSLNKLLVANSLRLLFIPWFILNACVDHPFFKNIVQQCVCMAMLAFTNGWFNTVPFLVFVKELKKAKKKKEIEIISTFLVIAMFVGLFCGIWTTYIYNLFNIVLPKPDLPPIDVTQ
The target of experiment [3] is T1, PfENT1. The class given is cell-based.
Experiment [4] relates to chloroquine-resistant Dd2 parasites. In words: Dd2 parasite viability / proliferation. It is filed as cell-based, Plasmodium falciparum. As to conditions: for IC50: Plasmodium falciparum, DD2, read-out: IC50 Dd2 parasite viability – high purine media; for IC50 with xanthine as purine source versus hypoxanthine: WT Dd2, 90 µM xanthine vs 10 µM hypoxanthine as sole purine source.

In the next experiment the test system is PfENT4. In words: [14C]2-deoxyadenosine uptake into PfENT4-expressing Xenopus oocytes. The class given is cell-based, Plasmodium falciparum. The note with it: concentrations up to 50 µM.
Another experiment concerns P. falciparum 3D7 strain. Description: 3D7 parasite viability / proliferation, 72-h growth assay. The note with it: ~10× the IC50 concentration; first 24 h of culture.
Experiment [5] deals with T1, PfENT1. Description: [3H]adenosine uptake into ade2Δ + PfENT1-CO yeast. It is filed as cell-based.
Experiment [6] deals with T1, PfENT1. It is filed as cell-based. As to conditions: each compound at 10 µM; 125 µM 5-FUrd.
In experiment [7] the target is T1, PfENT1. The note with it: cited from earlier work.
[8] abbreviates: EC50 5-FUrd growth rescue of fui1Δ::PfENT1-HA-CO, mean ± SD, N ≥ 3.

Take `O=c1[nH]c(=O)n([C@@H]2O[C@H](CO)[C@@H](O)[C@H]2O)cc1F` [5-FUrd, 5-fluorouridine]: the IC50 in experiment [1] turned out to be 7 ± 2 µM.

Take `O=C(Nc1ccc2nc(NC(=O)c3ccco3)sc2c1)c1ccco1` [Compound 1, N,N'-1,3-benzothiazole-2,6-diyldi(2-furamide)]: a half-maximal response at PfENT1 [2] (setting [8]) (EC50) required 0.8 µM. Moreover, the values for the IC50 (at PfENT1 [3]; in experiment [4]) were 0.2 ± 0.1 µM and 25.8 ± 1.3 µM, respectively. For the same compound, the “IC50 with xanthine as purine source versus hypoxanthine” value in [4] is recorded as “significantly lower”.

At PfENT1 [2] (setting [8]), `O=C(Nc1ccc(-c2nc3ncccc3o2)cc1)c1ccccc1Br` [Compound 2, 2-bromo-N-(4-[1,3]oxazolo[4,5-b]pyridin-2-ylphenyl)benzamide] showed an EC50 of 6 ± 1.7 µM. The IC50 on PfENT1 [3] was 2.1 ± 0.9 µM; in experiment [4], 52.4 ± 5.7 µM. Further, the “IC50 with xanthine as purine source versus hypoxanthine” value in [4] is listed as “significantly lower”.

As to `COc1cc(COc2ccc3c(C)cc(=O)oc3c2)cc(OC)c1OC` [Compound 3, 4-methyl-7-[(3,4,5-trimethoxybenzyl)oxy] -2H-chromen-2-one], at PfENT1 [2] (setting [8]), the response was half-maximal at 2.3 ± 0.9 µM (EC50). The compound further showed an IC50 at PfENT1 [3] of 0.6 ± 0.1 µM. In experiment [4], the IC50 worked out at 36.2 ± 6 µM and the “IC50 with xanthine as purine source versus hypoxanthine” value was “significantly lower”. In addition, the “inhibition of [14C]2-deoxyadenosine uptake” value in the experiment with PfENT4 is “did not inhibit”. In addition, in the experiment on P. falciparum 3D7 strain, the “parasite stage progression (microscopy)” value is on record as “failed to progress beyond the ring stage”.

`O=C(Nc1ccc(-c2nnc(-c3ccco3)o2)cc1)c1ccco1` [Compound 4, N-{4-[5-(2-furyl)-1,3,4-oxadiazol-2-yl]phenyl}-2-furamide] showed an EC50 on PfENT1 [2] (setting [8]) of 5.7 ± 0.8 µM. Also, the IC50 against PfENT1 [3] is 1.7 ± 0.4 µM; in [4], 15.3 ± 2.7 µM.

Consider `Cn1cc(C(=O)C(=O)Nc2ccc(C(=O)N3CCCC3)cc2)c2ccccc21` [Compound 5, 2-(1-methyl-1H-indol-3-yl)-2-oxo-N-[4-(pyrrolidin-1-ylcarbonyl)phenyl]acet amide], for which, at PfENT1 [2] (setting [8]), the EC50 turned out to be 6.5 ± 1.5 µM. Besides, the IC50 against PfENT1 [3] amounted to 2 ± 0.01 µM; in [4] it was 28.9 ± 2.6 µM. In addition, the “IC50 with xanthine as purine source versus hypoxanthine” value in [4] is “significantly lower”.

Turning to `O=C(Nc1cccc(-c2nc3ncccc3o2)c1)c1cccc(F)c1` [Compound 6, 3-fluoro-N-(3-[1,3]oxazolo[4,5-b]pyridin-2-ylphenyl)benzamide], a half-maximal effect on PfENT1 [2] (setting [8]) (EC50) was put at 5.7 ± 1.3 µM. Moreover, the half-maximal inhibitory concentration (IC50) on PfENT1 [3] was 1.1 ± 0.1 µM; in [4] it was 38.8 ± 4.9 µM.

On to `COc1ccccc1C(=O)Nc1cccc(-c2nc3ncccc3o2)c1` [Compound 7, 2-methoxy-N-(3-[1,3]oxazolo[4,5-b]pyridin-2-ylphenyl)benzamide], for which, at PfENT1 [2] (setting [8]), the EC50 was 6.4 ± 0.9 µM. In addition, the results for the concentration for half-maximal inhibition (IC50) (against PfENT1 [3]; in experiment [4]) were 1.6 ± 0.01 µM and 31 ± 0.6 µM, respectively.

For `Cc1ccccc1/C=C/c1nc2ccccc2c(=O)[nH]1` [Compound 13, 2-[2-(2-methylphenyl)vinyl]-4(3H)-quinazolinone], the midpoint of the response on PfENT1 [2] (setting [8]), the EC50, lay at 4.7 ± 2.9 µM. Further, the IC50 against PfENT1 [3] came to 0.6 ± 0.1 µM; at PfENT1 [5], 0.0039 ± 0.0016 µM; in [4], 2.6 ± 0.2 µM.

For `O=C(Nc1ccc(Cl)c(-c2nc3ncccc3o2)c1)c1cccs1` [Compound 19, N-(4-chloro-3-[1,3]oxazolo[4,5-b]pyridin-2-ylphenyl)-2-thiophenecarboxamide], the EC50 at PfENT1 [2] (setting [8]) came out at 5.4 ± 0.8 µM. In addition, the IC50 on PfENT1 [3] amounted to 1.7 ± 0.2 µM; in experiment [4], 37.4 ± 1.6 µM.

Consider `OC[C@H]1O[C@@H](n2cnc3c(O)ncnc32)[C@H](O)[C@@H]1O` [Inosine, inosine, reference compound], for which the EC50 at PfENT1 [2] (EC50 rescue of fui1Δ::PfENT1-HA-CO strain growth, OD600) was 3300 ± 200 µM; on PfENT1 [2] (EC50 rescue of fui1Δ::PfENT1-HA-CO strain growth, fluorescence), 5600 ± 2100 µM.

Turning to `OCCN(CCO)c1nc(N2CCCCC2)c2nc(N(CCO)CCO)nc(N3CCCCC3)c2n1` [dipyridamole], on PfENT1 [6], the “HTS outcome (positive = growth > four SD above no-growth control)” value is “not positive”. Besides, the “block of PfENT1” value at PfENT1 [7] is recorded as “do not block”.

Take `O=[N+]([O-])c1ccc(CSc2ncnc3c2ncn3C2OC(CO)C(O)C2O)cc1` (stereo not shown) [nitrobenzylthioinosine]: the “block of PfENT1” value on PfENT1 [7] is recorded as “do not block”.

What is called IC50 is the midpoint of a concentration-inhibition curve. The term EC50 denotes the midpoint of the concentration-response curve. Low values mean an effect from little substance, high ones a need for much substance.
